# In patent US20260048052A1, “METHODS OF TREATING TENOSYNOVIAL GIANT CELL TUMORS” (Deciphera Pharmaceuticals, LLC, priority 2023, published 2026):
# System: patients with TGCT
# Settings: human, in vivo
# Procedure: The safety population includes patients who received at least 1 dose of study drug. Severity was assessed by the investigator according to the toxicity grade described in the National Cancer Institute CTCAE v4.03 (grade 1 [mild] to grade 5 [death]). Time denotes the earliest start date of the worst grade for each TEAE; if the highest grade TEAE occurred in the first 12 months of treatment, lower grade events that occurred after 12 months were not captured in this figure. Key: AST, aspartate aminotransferase; COVID-19, coronavirus disease 2019; CPK, creatine phosphokinase; CTCAE v4.03, Common Terminology Criteria for Adverse Events version 4.03; LDH, lactate dehydrogenase; TEAE, treatment-emergent adverse event.
# This is a Phase 1/2 open-label, multicenter study evaluating the safety and efficacy of vimseltinib in patients with TGCT. In Phase 1, 32 patients enrolled in three cohorts across multiple doses. In Phase 2, 66 patients enrolled in two cohorts at the recommended Phase 2 dose of 30 mg twice weekly: Cohort A (n=46) in TGCT patients with no prior anti-CSF1/CSF1R therapy (prior therapy with imatinib or nilotinib allowed); and Cohort B (n=20) in TGCT patients with prior anti-CSF1/CSF1R therapy (prior therapy with imatinib or nilotinib alone not eligible).
smiles,measurement,value
"Cc1nc(-c2cnc(NC(C)C)n(C)c2=O)ccc1Oc1ccnc(-c2cnn(C)c2)c1 [Vimseltinib, 2-(isopropylamino)-3-methyl-5-(6-methyl-5-((2-(1-methyl-IH-pyrazol-4-yl)pyridin-4-yl)oxy)pyridin-2-yl)pyrimidin-4(3H)-one]",Grade 3/4 TEAE eczema,10%
same,Grade 3/4 TEAE increased blood CPK,35%
same,Grade 3/4 TEAE increased blood creatine phosphokinase (CPK),48%
same,grade of the majority of TEAEs,grade 1 or 2
same,onset of the majority of the most severe events,≤ 12 months
same,tolerability,well-tolerated
same,"tolerability, longer follow-up",continued to be well tolerated with a manageable safety profile
same,treatment discontinuation due to TEAEs,9%
